How the values were obtained:
[1] = system: rats; test: Reversal of suppression produced by chlordiazepoxide; assay type: in vivo, rat; conditions: 7.5 & 15 mg/kg; preliminary studies
[2] = system: mice; conditions: Cox et al., 1998; cited from earlier work
[3] = Rowlett et al., submitted; cited from earlier work
[4] = system: P rats; assay type: in vivo, rat; conditions: i.p.; chlordiazepoxide 10 mg/kg, βCCt 15 mg/kg; 10 min open field
Description: (§1) Ambulatory count in the open field was recorded individually for 10 min in a plexiglas chamber (42 cm×42 cm 30 cm) using a Digiscan activity monitoring system (Acuscan Electronics, Columbus, Ohio, USA) (for details of the monitoring system see June et al., 1998d).
(§2) βCCt (15 mg/kg i.p.) and chlordiazepoxide (10 mg/kg i.p.) were administered 15 and 30 min, respectively, prior to the rats being placed in the open field. EtOH (1.25 g/kg) was given 5 min prior to placing the rats in the open field. When βCCt was given in combination with either chlordiazepoxide or EtOH, it was given 10 min prior to chlordiazepoxide and EtOH. As noted above, βCCt was administered in Tween-20 solution, while all other drugs were mixed in sterile saline. Animals were tested between 9 am-3 pm.
(§3) Ambulatory count in the open field was recorded individually for 10 min in a plexiglas chamber (42 cm×42 cm 30 cm) using a Digiscan activity monitoring system (Acuscan Electronics, Columbus, Ohio, USA) (for details of the monitoring system see June et al., 1998b).
(§4) βCCt (5-60 mg/kg i.p.) and chlordiazepoxide (2.5, 5, 10 mg/kg i.p.) were administered 15 and 30 min, respectively, prior to being placed in the plus maze or open field. EtOH (1.25 g/kg) was given 5 min prior to placing the rats in the open field. When βCCt was given in combination with either chlordiazepoxide or EtOH, it was given 10 min prior to chlordiazepoxide and EtOH. As noted above, βCCt was administered in Tween-20 solution, while all other drugs were mixed in sterile saline. Animals were tested between 9am-3 pm.

[5] = system: HAD-1 rats; assay type: in vivo, rat; conditions: i.p.; chlordiazepoxide 10 mg/kg, βCCt 15 mg/kg; 10 min open field
Description: as §1, §2, §3, §4

[6] = system: P rats; assay type: in vivo, rat
Description: (§5) Rats were placed in the middle of the automated plus maze (Acuscan Electronics, Columbus, Ohio, USA) with two walled and open arms under dim illumination (for details see June et al., 1998b).
as §4
(§6) HAD-1 asnd P rats were randomly assigned to each of the […] drug treatment groups (Veh, 5, 15, 30, 60 mg/kg). A between group ANOVA with drug treatment as the independent factor was conducted for HAD-1 (n=8-12 per treatment group) [total N=42] and P (n=7-12 per treatment group) [total N=42] rats on the plus-maze test.

[7] = system: HAD-1 rats; assay type: in vivo, rat
Description: as §5, §4, §6

Compound	reversal of suppression produced by chlordiazepoxide (2.5-10 mg/kg) [1]	response in pentylenetetrazole seizure model [2]	antagonism in zolpidem discrimination [3]	locomotor activity, drug given alone [4]	locomotor activity, drug given alone [5]	effect on anxiolytic activity produced by chlordiazepoxide (5.0 mg/kg) ([6]; 5, 15 mg/kg i.p.)	number of closed arm entries ([6]; i.p. 5-60 mg/kg)	sedation in the plus maze ([7]; 60 mg/kg i.p., data not shown)	effect on anxiolytic activity produced by chlordiazepoxide (5.0 mg/kg) ([7]; 5, 15 mg/kg i.p.)	number of closed arm entries ([7]; i.p.)
CCCOc1cc2c(cn1)[nH]c1ccccc12.Cl [3-PBC, 3-Propoxy-β-carboline hydrochloride]	reversed the suppression produced by chlordiazepoxide	“neutral” antagonist-like response	surmountable antagonism							
CC(C)(C)OC(=O)c1cc2c(cn1)[nH]c1ccccc12 [βCCt, β-carboline-3-carboxylate t-butyl ester]				did not produce any intrinsic effects	did not produce any intrinsic effects	neither dose of βCCt (5, 15 mg/kg, i.p.) altered the anxiolytic activity	significant reduction in performance only with the 60 mg/kg dose	marked sedative profile	neither dose of βCCt (5, 15 mg/kg, i.p.) altered the anxiolytic activity	without effect

From patent US20030176456A1, “Methods for reducing alcohol cravings in chronic alcoholics” (priority 2001, published 2003)
